Test results: ChEMBL document CHEMBL1128958, “Synthesis and biological activity of the neuronal calcium channel blocker 2-amino-1-(2,5-dimethoxyphenyl)-5-trifluoromethyl benzimidazole (NS-649)” (Bioorg Med Chem Lett, 1996)

What was measured:
Cavia porcellus = species: Cavia porcellus; assay: Effect on [Ca2+]-induced contractions in potassium-depolarized guinea pig taenia coli; type: functional
Mus musculus = species: Mus musculus; assay: Concentration that blocked potassium evoked release of [3H]D-aspartate from mouse cerebellar granule neurons; type: functional

- IC50 (Mus musculus): ~2400 nM
SMILES: COc1ccc(OC)c(-n2c(N)nc3cc(C(F)(F)F)ccc32)c1
- Concentration (Cavia porcellus): 30 µM
